Data as given in patent US10478437B2, “Combination therapy to enhance the anticancer efficacy of platinum drugs” (University of Pittsburgh-of the Commonwealth System of …, priority 2014, dated 2019).

Test system: cisplatin-resistant ovarian cancer cell line A2780cis
Assay: Caspase-3/7 activity assay (apoptotic cell death), compound alone or with cisplatin
Assay type: cell-based, human
Conditions: for caspase-3/7 activity (Lum), compound with cisplatin / caspase-3/7 activity (Lum), compound alone: 20 h; for caspase-3/7 activity (Lum), compound alone: compound 20 μM; for activity in the screen (Caspase-3/7 activity and microscopic examination), active / inactive: alone or in the presence of cisplatin, in words
Method: Cell proliferation was determined using a CyQUANT Direct Cell Proliferation Assay kit (Invitrogen), the activity of caspase-3/7 was measured using a Caspase-Glo 3/7 Assay Systems (Promega, Madison, Wis.), and the MTS calorimetric survival assay was performed using the CellTiter 96 AQueous One Solution Cell Proliferation Assay kit (Promega, Madison, Wis.), according to the manufacturer's instructions. The survival fractions were calculated after setting untreated control cells at 100%. The data were plotted and curve fitted using GraphPad Prism software. To quantify the number of cells with active caspase-3, cells were fixed with 4% paraformaldehyde (Electron microscopy sciences, Hatfield, Pa.), stained with Alexa Fluor-488 conjugated antibody against cleaved caspase-3 (Asp175) (Cell Signaling Technology, Danvers, Mass.) followed by flow cytometry. An FITC Annexin V Apoptosis Detection Kit (BD PharMingen, San Diego, Calif.) was used to quantify apoptotic cells, according to the manufacturer's instructions.
A Caspase-3/7 assay was performed to evaluate the activity of the 36 compounds of FIG. 1 in vitro in the cisplatin-resistant ovarian cancer cell line, A2780cis, alone or in the presence of cisplatin. A microscopic examination of apoptotic morphologic changes was also carried out right before the measurement of Caspase-3/7 activity, in order to confirm that the data on the activation of the Caspase-3/7 following treatment is consistent with morphological change and reflects cell death.

[1] = Table 1, compound 20 μM with 20 μM cisplatin
[2] = Table 1, mean ± S.D. of triplicates
[3] = Table 3, compound 20 μM with 20 μM of cisplatin

Compound	caspase-3/7 activity (Lum), compound with cisplatin [1]	caspase-3/7 activity (Lum), compound alone [2]	caspase-3/7 activity (Lum), compound with cisplatin [3]	caspase-3/7 activity (Lum), compound alone (Table 3)	activity in the screen (Caspase-3/7 activity and microscopic examination), active / inactive
O=C(CCn1c(=S)[nH]c2ccccc2c1=O)NCC1(c2ccccc2)CCCC1 [Compound 1-13]	35 ± 3 Lum	14 ± 1 Lum			
CCCN1C(=O)C(=C(C)NC2CCC(C)CC2)C(=O)NC1=S (stereo not drawn) [Compound 2-27]			19 ± 3 Lum	7 ± 1 Lum	
O=C(Nc1ccccc1)c1c(O)[nH]c(=S)[nH]c1=O [Compound 1-35]	5 ± 1 Lum	2 ± 1 Lum			
CCOC(=O)c1ccccc1NC(=O)c1c(O)[nH]c(=S)[nH]c1=O [Compound 1-34]	22 ± 3 Lum	12 ± 1 Lum			
Cc1c(NC(=S)NC(=O)C(C)(C)C)c(=O)n(-c2ccccc2)n1C [Compound 2-10]			20 ± 2 Lum	7 ± 2 Lum	
COCCCNC(=S)NC(=O)c1ccc(F)cc1 [Compound 2-15]			18 ± 3 Lum	8 ± 1 Lum	
CC(C)C(=O)NC(=S)Nc1ccc(F)c(Cl)c1 [Compound 2-11]			17 ± 2 Lum	9 ± 1 Lum	
O=C(NC(=S)Nc1ccccc1N1CCOCC1)c1ccco1 [Compound 2-3]			20 ± 1 Lum	8 ± 1 Lum	
Cc1[nH]c(=S)[nH]c(=O)c1CCC(=O)N1CCOCC1 [Compound 1-10]	21 ± 2 Lum	14 ± 1 Lum			
CC1CCc2c(sc3[nH]c(=S)n(Cc4ccccc4)c(=O)c23)C1 (stereo not drawn) [Compound 1-2]	25 ± 3 Lum	12 ± 1 Lum			inactive
COc1ccc(C(C)=C2C(=O)NC(=S)NC2=O)cc1OC [Compound 2-26]			21 ± 4 Lum	6 ± 0 Lum	
O=C(NC(=S)Nc1ccccc1N1CCCC1)c1cccs1 [Compound 2-4]			18 ± 1 Lum	8 ± 1 Lum	
O=C(NC(=S)NCCN1CCOCC1)c1ccc(Cl)cc1 [Compound 2-18]			17 ± 1 Lum	9 ± 1 Lum	
CC(C)(C)C1CCc2c(sc3[nH]c(=S)n(Cc4ccccc4)c(=O)c23)C1 (stereo not drawn) [Compound 1-27]	40 ± 5 Lum	23 ± 2 Lum			inactive
Cc1[nH]c(=S)[nH]c(=O)c1CCC(=O)NCCc1c[nH]c2ccccc12 [Compound 1-11]	18 ± 2 Lum	12 ± 1 Lum			
COc1ccc(C(C)=C2C(=O)NC(=S)NC2=O)cc1 [Compound 2-25]			24 ± 2 Lum	6 ± 0 Lum	
O=c1[nH]c2ccccc2c(=O)n1CCc1ccccc1 [Compound 1-33]	16 ± 1 Lum	10 ± 1 Lum			
CC(C)CC(NC(=O)Cn1c(=O)[nH]c(=O)c2ccccc21)c1ccccc1 (stereo not drawn) [Compound 1-25]	33 ± 2 Lum	15 ± 1 Lum			
CC1CCN(CCCn2c(=S)[nH]c3ccccc3c2=O)CC1 [Compound 1-12]	23 ± 3 Lum	10 ± 1 Lum			
O=C(NC(=S)NCCN1CCOCC1)c1ccc(F)cc1 [Compound 2-17]			18 ± 1 Lum	7 ± 2 Lum	
O=C(NC(=S)Nc1ccccc1)c1ccc(Br)o1 [Compound 2-8]			20 ± 2 Lum	7 ± 2 Lum	
O=C(CNC(=S)NC(=O)c1ccc(F)cc1)c1ccccc1 [Compound 2-22]			26 ± 2 Lum	9 ± 1 Lum	
C=CCn1c(=S)[nH]c2scc(-c3ccc(Oc4ccccc4)cc3)c2c1=O [Compound 1-15]	28 ± 3 Lum	12 ± 2 Lum			inactive
NC(=O)c1ccccc1NC(=S)NC(=O)c1ccco1 [Compound 2-29]			19 ± 3 Lum	7 ± 1 Lum	
CCCCn1c(=S)[nH]c2cc(C(=O)OC)ccc2c1=O [Compound 1-36]	47 ± 3 Lum	16 ± 2 Lum			

Compound	caspase-3/7 activity (Lum), compound with cisplatin [1]	caspase-3/7 activity (Lum), compound alone [2]	caspase-3/7 activity (Lum), compound with cisplatin [3]	caspase-3/7 activity (Lum), compound alone (Table 3)	activity in the screen (Caspase-3/7 activity and microscopic examination), active / inactive
O=C(CNC(=S)NC(=O)c1ccco1)c1ccccc1 [Compound 2-12]			18 ± 1 Lum	7 ± 1 Lum	
C=CCn1c(=S)[nH]c2cc(C(=O)Nc3cc(OC)c(OC)c(OC)c3)ccc2c1=O [Compound 1-22]	25 ± 2 Lum	16 ± 1 Lum			
CCN(CC)CCn1c(=O)[nH]c2ccccc2c1=O [Compound 1-31]	26 ± 4 Lum	12 ± 1 Lum			
O=C(NC(=S)NCCc1ccccc1)C1CCCCC1 [Compound 2-28]			18 ± 2 Lum	7 ± 1 Lum	
Cc1cccc2c(=O)n(CCN(C)C)c(=S)[nH]c12 [Compound 1-7]	20 ± 3 Lum	12 ± 2 Lum			
COc1ccccc1Cn1c(=S)[nH]c2ccccc2c1=O [Compound 1-20]	39 ± 3 Lum	13 ± 1 Lum			
O=C(CCn1c(=S)[nH]c2ccccc2c1=O)N1CCOCC1 [Compound 1-9]	23 ± 1 Lum	13 ± 1 Lum			
O=C(NC(=S)NCc1ccccc1)C1CCCCC1 [Compound 2-30]			20 ± 5 Lum	6 ± 0 Lum	
O=C(NC(=S)NC1CCS(=O)(=O)C1)c1ccccc1 (stereo not drawn) [Compound 2-14]			21 ± 2 Lum	8 ± 1 Lum	
COc1ccc(C=C2C(=O)NC(=S)NC2=O)c(OC)c1 [Compound 2-6]			22 ± 1 Lum	7 ± 1 Lum	
O=c1[nH]c2ccccc2c(=O)n1CCCN1CCOCC1 [Compound 1-32]	20 ± 1 Lum	13 ± 1 Lum			
O=C(NC(=S)NCC1CCCO1)c1ccccc1 (stereo not drawn) [Compound 2-9]			20 ± 2 Lum	8 ± 1 Lum	
CN(Cc1ccc(Cl)c(Cl)c1)C(=O)CCn1c(=O)[nH]c(=O)c2ccccc21 [Compound 1-23]	27 ± 1 Lum	15 ± 1 Lum			
Cc1ccc(-c2csc3[nH]c(=S)n(-c4ccccc4)c(=O)c23)o1 [Compound 1-1]	28 ± 1 Lum	12 ± 1 Lum			inactive
N#Cc1c(-c2ccc(Br)cc2)[nH]c(=S)[nH]c1=O [Compound 1-26]	26 ± 1 Lum	14 ± 3 Lum			
O=C(CCCCCn1c(=S)[nH]c2ccccc2c1=O)NCc1ccc2c(c1)OCO2 [Compound 1-14]	22 ± 2 Lum	11 ± 1 Lum			
O=C(NC(=S)Nc1ccc(F)c(Cl)c1)C1CCCCC1 [Compound 2-16]			17 ± 1 Lum	8 ± 1 Lum	
O=C(NC(=S)NC1CCS(=O)(=O)C1)c1ccc(F)cc1 (stereo not drawn) [Compound 2-13]			20 ± 3 Lum	8 ± 1 Lum	
O=C(CCn1c(=O)[nH]c2ccccc2c1=O)NCCCOc1ccc(F)cc1 [Compound 1-18]	19 ± 3 Lum	12 ± 1 Lum			
COCCCn1c(=S)[nH]c2cc(C(=O)Nc3ccc(F)c(F)c3)ccc2c1=O [Compound 1-16]	18 ± 3 Lum	10 ± 1 Lum			
CC(C)(C)C(=O)NC(=S)Nc1sc2c(c1C(N)=O)CCCC2 [Compound 2-20]			15 ± 2 Lum	8 ± 1 Lum	
Nn1c(=S)[nH]c2ccccc2c1=O [Compound 1-28]	22 ± 2 Lum	15 ± 1 Lum			
CN(C)CCn1c(=S)[nH]c2ccc(Cl)cc2c1=O [Compound 1-5]	32 ± 1 Lum	13 ± 1 Lum			
O=C(NC(=S)Nc1ccccc1F)c1ccco1 [Compound 2-21]			25 ± 1 Lum	8 ± 1 Lum	
